Results reported in ChEMBL document CHEMBL4673296 (J Med Chem, 2020).
Calls of active or inactive are those of the source. The calls are words filed in the database; no cut-off is given here.

How the values were obtained:
MDA-MB-468 [1] = test: Reduction in autophagosome accumulation in human MDA-MB-468 cells at 10 uM by transmission electron microscopic analysis; assay type: functional, cell-based
[2] = Efflux ratio of apparent permeability from basolateral side to apical side over apical side to basolateral side in human Caco2 cells; assay type: ADME, cell-based; conditions: Caco-2
[3] = biological target: T1, Serine/threonine-protein kinase ULK1 (Homo sapiens) (UniProt O75385); test: Inhibition of Myc-tagged ULK1 (unknown origin) expressed in HEK293T cells cotransfected with wild-type Flag tagged Vps34 assessed as decrease in pVPS34 Ser249 at 10 uM measured after 1 hr by Western blot analysis relative to control; assay type: cell-based
T1 sequence (whole entry): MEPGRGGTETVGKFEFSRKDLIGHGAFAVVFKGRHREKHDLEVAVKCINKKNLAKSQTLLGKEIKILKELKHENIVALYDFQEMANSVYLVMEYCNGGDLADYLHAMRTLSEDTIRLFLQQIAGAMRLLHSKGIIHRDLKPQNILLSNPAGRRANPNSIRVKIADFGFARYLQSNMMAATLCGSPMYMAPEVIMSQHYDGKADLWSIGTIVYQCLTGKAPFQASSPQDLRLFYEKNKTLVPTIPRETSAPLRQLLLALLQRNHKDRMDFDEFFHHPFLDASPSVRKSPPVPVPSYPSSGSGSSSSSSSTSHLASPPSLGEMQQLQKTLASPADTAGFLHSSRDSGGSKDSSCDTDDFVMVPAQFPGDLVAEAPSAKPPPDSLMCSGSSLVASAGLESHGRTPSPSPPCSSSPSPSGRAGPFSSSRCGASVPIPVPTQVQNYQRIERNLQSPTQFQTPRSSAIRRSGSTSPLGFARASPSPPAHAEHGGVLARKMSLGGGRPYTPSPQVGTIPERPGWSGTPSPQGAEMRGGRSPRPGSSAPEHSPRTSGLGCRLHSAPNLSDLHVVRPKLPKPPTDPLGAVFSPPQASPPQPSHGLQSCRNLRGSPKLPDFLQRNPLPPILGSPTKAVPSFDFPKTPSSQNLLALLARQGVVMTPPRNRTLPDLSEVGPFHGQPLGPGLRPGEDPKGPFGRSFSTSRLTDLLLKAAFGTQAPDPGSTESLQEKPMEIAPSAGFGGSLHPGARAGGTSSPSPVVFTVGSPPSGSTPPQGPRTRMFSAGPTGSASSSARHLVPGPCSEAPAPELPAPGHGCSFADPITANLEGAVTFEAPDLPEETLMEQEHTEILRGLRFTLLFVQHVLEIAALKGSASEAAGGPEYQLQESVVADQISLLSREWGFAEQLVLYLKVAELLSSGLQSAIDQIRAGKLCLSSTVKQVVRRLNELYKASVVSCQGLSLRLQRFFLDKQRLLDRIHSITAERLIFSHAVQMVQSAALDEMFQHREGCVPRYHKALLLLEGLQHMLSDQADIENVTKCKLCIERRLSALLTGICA

[4] = Tmax in C57BL/6J mouse at 30 mg/kg, po measured upto 24 hrs by LC-MS/MS analysis; assay type: ADME, organism-based; conditions: in vivo
MDA-MB-468 [5] = test: Induction of apoptosis in human MDA-MB-468 cells assessed as necrotic cells at 10 uM measured after 18 hrs in normal growth media by AnnexinV/7-AAD staining based flow cytometric analysis (reference value: 0.2%); assay type: functional
MDA-MB-468 [6] = test: Synergistic cytotoxicity against human MDA-MB-468 cells a t0.021 to 15 uM in presence of PARP inhibitor olaparib measured after 72 hrs by Celltiter-Glo assay; assay type: functional, cell-based; conditions: dose 0.021-15 µM
MDA-MB-468 [7] = test: Synergistic cytotoxicity against human MDA-MB-468 cells at 0.19 to 1.7 uM in presence of PARP inhibitor niraparib measured after 72 hrs by Celltiter-Glo assay; assay type: functional, cell-based; conditions: dose 0.19-1.7 µM
MDA-MB-468 [8] = test: Induction of apoptosis in human MDA-MB-468 cells assessed as necrotic cells at 10 uM measured after 18 hrs in low-glucose, amino acid-free Earles balanced salt solution (EBSS) media by AnnexinV/7-AAD staining based flow cytometric analysis (reference value: 0.1%); assay type: functional
MDA-MB-468 [9] = test: Induction of apoptosis in human MDA-MB-468 cells assessed as viable cells at 10 uM measured after 18 hrs in low-glucose, amino acid-free Earles balanced salt solution (EBSS) media by AnnexinV/7-AAD staining based flow cytometric analysis (reference value: 86.6%); assay type: functional; conditions: read-out: Activity
MDA-MB-468 [10] = test: Induction of apoptosis in human MDA-MB-468 cells assessed as late apoptotic cells at 10 uM measured after 18 hrs in normal growth media by AnnexinV/7-AAD staining based flow cytometric analysis (reference value: 6.8%); assay type: functional
[11] = biological target: T2, Serine/threonine-protein kinase ULK1 (Homo sapiens, UniProt O75385); test: Inhibition of ULK1 (unknown origin) expressed in HEK293T cells incubated for 2 hrs by NanoBRET assay; assay type: cell-based
T2 sequence (O75385 whole entry): T1 sequence (whole entry)

[12] = biological target: T1, Serine/threonine-protein kinase ULK1 (Homo sapiens); test: Binding affinity to recombinant human ULK1 assessed as change in melting temperature at 10 uM by thermal shift assay

COc1ccc(Nc2ncc(C(F)(F)F)c(NC3CC3)n2)cc1OC
inhibition (MDA-MB-468 [1]): Active | efflux ratio [2]: < 2 | inhibition [3]: 90% | Tmax [4]: 1 h | Activity (MDA-MB-468 [5]): 0.2% | Activity (MDA-MB-468 [6]): Active | Activity (MDA-MB-468 [7]): Active | Activity (MDA-MB-468 [8]): 0.1% | viability at 10 µM (MDA-MB-468 [9]): 38.6% | Activity (MDA-MB-468 [10]): 6.8% | IC50 [11]: 328 nM | ΔTm [12]: 8.3 °C
